Source: patent publication EP0082501A1, “Beta-lactam compound and a pharmaceutical composition containing the same” (KYOWA HAKKO KOGYO CO., LTD, priority 1981, dated 1983)
In brackets after ≈: the same amount, converted by molar mass.

Experiments:
Experiment in all cases: Antibacterial effect, dilution method on Mueller-Hinton agar (MIC)
Type in all cases: cell-based
[1] = system: Staphilococcus aureus 209-P
[2] = system: Escherichia coli NIHJ C-2; conditions: NIHJC2
[3] = system: Krebsiella pneumoniae 8045
Serratia marcescens T-26 = conditions: T26
Proteus morganii 4298 = conditions: Morganella morganii
[4] = system: Enterobacter aerogenes F-1948; conditions: Klebsiella aerogenes, F1948
[5] = system: Pseudomonas aerginosa 145
[6] = system: Pseudomonas sepatia F-2251; conditions: F2251
[7] = system: Pseudomonas maltphilia F-3438; conditions: F3438
Proteus vulgaris 6897 = system: Proteus vulgaris 6897
Proteus rettgeri 4289 = conditions: Providencia rettgeri

Row | Compound | MIC [1] | MIC [2] | MIC [3] | MIC (Serratia marcescens T-26) | MIC (Proteus morganii 4298) | MIC [4] | MIC [5] | MIC [6] | MIC [7] | MIC (Proteus vulgaris 6897) | MIC (Proteus rettgeri 4289)
1 | CO/N=C(\C(=O)N[C@@H]1C(=O)N2C(C(=O)O)=C[C@H](N=[N+]=[N-])C[C@H]12)c1csc(N)n1 [Exs. 5 and 17, [4R, 6R, 7S]-7-[2-(2-amino-4-thiazolyl)-2-syn-methoxyiminoacetamido]-4-azido-1-azabicyclo [4,2,0]oct-2-en-8-oxo-2-carboxylic acid] | 1.56 µg/mL (≈ 3.84 µM) | 0.1 µg/mL (≈ 0.246 µM) | 0.02 µg/mL (≈ 0.0492 µM) | 6.25 µg/mL (≈ 15.4 µM) | ≤ 0.01 µg/mL | 25 µg/mL (≈ 61.5 µM) | 6.25 µg/mL (≈ 15.4 µM) | 12.5 µg/mL (≈ 30.8 µM) | > 100 µg/mL |  | 
2 | CC(=O)Oc1ccc(C(=O)O/N=C(\C(=O)N[C@@H]2C(=O)N3C(C(=O)O)=C[C@H](N=[N+]=[N-])C[C@H]23)c2csc(N)n2)cc1OC(C)=O [Ex. 6, [4R,6R,7S]-7-[2-(2-amino-4-thiazolyl)-2-syn-(3,4-diacetoxy)-benzoyloxyimino-acetamido]-4-azido-l-azabicyclo[4,2,0]oct-2-en-8-oxo-2-carboxylic acid] | 3.13 µg/mL (≈ 5.11 µM) | 0.05 µg/mL (≈ 0.0816 µM) | 0.02 µg/mL (≈ 0.0327 µM) | 0.05 µg/mL (≈ 0.0816 µM) | 0.05 µg/mL (≈ 0.0816 µM) | 3.13 µg/mL (≈ 5.11 µM) | 0.1 µg/mL (≈ 0.163 µM) | 0.02 µg/mL (≈ 0.0327 µM) | 25 µg/mL (≈ 40.8 µM) | ≤ 0.01 µg/mL | ≤ 0.01 µg/mL
3 | CO/N=C(\C(=O)N[C@@H]1C(=O)N2C(C(=O)O)=C[C@H](Sc3nnnn3-c3ccccc3)C[C@H]12)c1csc(N)n1 [Ex. 13, [4R,6R,7S]-7-[2-(2-amino-4-thiazolyl)-2-syn-methoxyiminoacetamido]-4-(1-phenyl-1,2,3,4-tetrazol-5-yl)-thio-l-azabicyclo[4,2,0]oct-2-en-8-oxo-2-carboxylic acid] | 3.13 µg/mL (≈ 5.78 µM) | 0.78 µg/mL (≈ 1.44 µM) | 0.39 µg/mL (≈ 0.72 µM) | 6.25 µg/mL (≈ 11.5 µM) | 0.78 µg/mL (≈ 1.44 µM) | 50 µg/mL (≈ 92.3 µM) | 12.5 µg/mL (≈ 23.1 µM) | 25 µg/mL (≈ 46.2 µM) | > 100 µg/mL | 0.02 µg/mL (≈ 0.0369 µM) | 0.2 µg/mL (≈ 0.369 µM)
4 | CO/N=C(\C(=O)N[C@@H]1C(=O)N2C(C(=O)O)=C[C@@H](N=[N+]=[N-])C[C@H]12)c1csc(N)n1 [Ex.26, [4S,6R,7S]-7-[2-(2-amino-4-thiazolyl)-2-syn-methoxyiminoacetamido]-4-azido-1-azabicyclo[4,2,0]oct-2-en-8-oxo-2-carboxylic acid] | 6.25 µg/mL (≈ 15.4 µM) | 0.05 µg/mL (≈ 0.123 µM) | 0.02 µg/mL (≈ 0.0492 µM) | 6.25 µg/mL (≈ 15.4 µM) | 0.02 µg/mL (≈ 0.0492 µM) | 25 µg/mL (≈ 61.5 µM) | 12.5 µg/mL (≈ 30.8 µM) | 25 µg/mL (≈ 61.5 µM) | > 100 µg/mL | ≤ 0.01 µg/mL | ≤ 0.01 µg/mL

More lines, now with the values ahead:

Row | MIC [1] | MIC [2] | MIC [3] | MIC (Serratia marcescens T-26) | MIC (Proteus morganii 4298) | MIC [4] | MIC [5] | MIC [6] | MIC [7] | MIC (Proteus vulgaris 6897) | MIC (Proteus rettgeri 4289) | Compound
5 | 3.13 µg/mL | 0.39 µg/mL | 0.2 µg/mL | 25 µg/mL | 0.2 µg/mL | 50 µg/mL | 12.5 µg/mL | 12.5 µg/mL | > 100 µg/mL | ≤ 0.01 µg/mL | 0.02 µg/mL | CO/N=C(\C(=O)N[C@@H]1C(=O)N2C(C(=O)O)=C[C@@H](Sc3ccncc3)C[C@H]12)c1csc(N)n1 [Ex.23, sodium [4S,6R,7S]-7-[2-(2-amino-thiazol-4-yl)-2-syn-methoxyimino]-acetamido-4-(pyridin-4-yl)-thio-1-azabicyclo[4,2,0]oct-2-en-8-oxo-2-carboxylate]
6 | 6.25 µg/mL (≈ 13 µM) | 0.1 µg/mL (≈ 0.209 µM) | 0.02 µg/mL (≈ 0.0417 µM) | 6.25 µg/mL (≈ 13 µM) | ≤ 0.01 µg/mL | 50 µg/mL (≈ 104 µM) | 12.5 µg/mL (≈ 26.1 µM) | 25 µg/mL (≈ 52.1 µM) | > 100 µg/mL | ≤ 0.01 µg/mL | ≤ 0.01 µg/mL | CO/N=C(\C(=O)N[C@@H]1C(=O)N2C(C(=O)O)=C[C@H](Sc3nnnn3C)C[C@H]12)c1csc(N)n1 [Ex.15, [4R,6R,7S]-7-[2-(2-amino-4-thiazolyl)-2-syn-methoxyiminoacetamido]-4-(1-methyl-1,2,3,4-tetrazol-5-yl)-thio-1-azabicyclo[4,2,0]oct-2-en-8-oxo-2-carboxylic acid]
